Tested on: dopamine concentration in the striatum
Experiment: Chronic MPP+ infusion model of Parkinson's disease, dopamine concentration in the striatum
Type: in vivo, rat
Design: key to Anti-Parkinson test in comparison to 9-methyl-β-carboline: +: slightly better than 9-methyl-β-carboline; ±: the same as 9-methyl-β-carboline; −: slightly worse than 9-methyl-β-carboline
Settings: tested as described in example 8
Text: In the diagram the dopamine (DA) levels of the left and right striatum of the single rats are indicated.
To investigate Parkinson's disease acute in vivo models are used for years although chronic models would be a better model for the disease. Another disadvantage of the acute models is that ca. 40% of the animals die from the application of the neurotoxin. Therefore, we have chosen a chronic model in which comparably very low doses of neurotoxin 1-methyl-4-phenylpyridinium (MPP^+) were infused for 28 days into the left lateral ventricle of the rat brain. The substance was continuously applied through osmotic minipumps. Thereby, casualties were completely avoided. After four weeks, either solvent or equimolar amounts of the sample substance, namely neuroprotective betacarboline, resp. 9-alkyl-betacarboline was infused for two weeks via the same catheter. In a preliminary study for dose-finding the MPP^+ dose which leads to a reduction by 40% of the dopamine concentration in the striatum was determined. The dopamine concentration in the striatum is a characteristic marker for Parkinson's disease in which a degeneration of dopaminergic neurons occurs.
The compounds A to L were tested as described in example 8. The test results of the compounds A to L are indicated in the following table in comparison to 9-methyl-β-carboline.

| Molecule | Anti-Parkinson test in comparison to 9-methyl-β-carboline |
| --- | --- |
| CCCn1c2ccccc2c2ccncc21 [Compound A] | + |
| CCCCCCn1c2ccccc2c2ccncc21 [Compound B] | ± |
| CCCCCCCCCCCCCCn1c2ccccc2c2ccncc21 [Compound C] | ± |
| C=CCn1c2ccccc2c2ccncc21 [Compound D] | + |
| CC(C)Cn1c2ccccc2c2ccncc21 [Compound E] | + |
| CCn1c2ccccc2c2ccncc21 [Compound F] | ± |
| COCCn1c2ccccc2c2ccncc21 [Compound G] | ± |
| C#CCn1c2ccccc2c2ccncc21 [Compound H] | + |
| c1ccc(Cn2c3ccccc3c3ccncc32)cc1 [Compound I] | − |
| COC(=O)CCn1c2ccccc2c2ccncc21 [Compound J] | ± |
| CC(C)C(C)Cn1c2ccccc2c2ccncc21 (centres unmarked) [Compound K] | ± |
| CN(C)CCn1c2ccccc2c2ccncc21 [Compound L] | + |

Tested on: dopaminergic neurons in the anterior putamen
Experiment: not given
Settings: patients suffering from Parkinson's disease, infusion; cited from earlier work

| Molecule | cellular extensions of dopaminergic neurons in the anterior putamen | clinical symptoms |
| --- | --- | --- |
| GDNF: the protein glial cell line-derived neurotrophic factor, infused in Parkinson patients (Love et al.) (protein, UniProt P39905 78-211, looked up) Glial cell line-derived …: SPDKQMAVLPRRERNRQAAAANPENSRGKGRRGQRGKNRGCVLTAIHLNVTDLGLGYETKEELIFRYCSGSCDAAETTYDKILKNLSRNRRLVSDKVGQACCRPIAFDDDLSFLDDNLVYHILRKHSAKRCGCI | growth of cellular extensions | improvement in clinical symptoms |

— US8334299B2, “β-carboline for the treatment of neurodegenerative diseases” (Ellneuroxx, Ltd., priority 2007, dated 2012)
